Details: for log10 BCF / log10 biotransformation half-life (days): fish

Compound | boiling point | melting point | also measured
COc1cccc(C(C)=O)c1 | 240 °C | – | –
O=C(O)Cc1cccc2ccccc12 | – | 135 °C | log10 Koc (L/kg): 2.2; ready biodegradability: not readily biodegradable; log10 BCF: 0.47
O=CC(=O)O | – | – | ready biodegradability: readily biodegradable
CCOC(=O)C1(C(=O)OCC)CC1 | 216 °C | – | –
Clc1ccc(Cl)c(-c2cc(Cl)c(Cl)cc2Cl)c1 | – | – | log10 Henry constant (atm·m³/mol): -4.05; log10 Koa: 9.06; log10 Koc (L/kg): 5.22; log10 vapour pressure (mmHg): -4.6; log10 BCF: 5.47; log10 biotransformation half-life (days): 2.46
CCOP(=O)(SC(C)CC)N1CCSC1=O (centres undefined) | – | – | log10 Henry constant (atm·m³/mol): -9.76; log10 vapour pressure (mmHg): -5.38
CCCCCCCCCCCCCCCCCCCCc1ccccc1 | 429 °C | 44 °C | –
O=[N+]([O-])c1cccc(Br)c1 | 256 °C | 56 °C | log10 vapour pressure (mmHg): -1.15
CCC(CC)C(=O)O | 194 °C | -31.8 °C | log10 vapour pressure (mmHg): -0.726; ready biodegradability: readily biodegradable
N#Cc1c(F)c(F)c(C#N)c(F)c1F | – | 198 °C | –
Cc1ccc[nH]1 | 147 °C | -35.6 °C | –
CCOP(=O)(OCC)Oc1cc(C)nc(C(C)C)n1 | – | – | log10 BCF: -0.35
O=Cc1cc(Cl)ccc1Cl | 232 °C | 58 °C | –
COc1ccc(C[C@H](N)C(=O)N[C@H]2[C@@H](O)[C@H](n3cnc4c(N(C)C)ncnc43)O[C@@H]2CO)cc1 | – | 176 °C | –
CC(C)=C1CCC(C)CC1 (centres undefined) | 173 °C | – | –
CCCC(=O)C1=C(O)C(C)(C)C(O)=C(Cc2c(OC)cc(O)c(C(=O)CCC)c2O)C1=O | – | 150 °C | –
CCCSP(=O)(OCC)SCCC | – | -13 °C | log10 Koc (L/kg): 1.85; log10 vapour pressure (mmHg): -3.42
Cc1cc(Cl)ccc1[N+](=O)[O-] | – | 25.5 °C | –
CCc1c(C)[nH]c2c1C(=O)C(CN1CCOCC1)CC2 (centres undefined) | – | 180 °C | –
COC1=C[C@@H]2[C@@H]3Cc4ccc(OC)c(O)c4[C@]2(CCN3C)CC1=O | – | 162 °C | –
COC(C)(C)C | 55.2 °C | -109 °C | log10 Henry constant (atm·m³/mol): -3.23; log10 Koa: 2.58; log10 vapour pressure (mmHg): 2.4; ready biodegradability: not readily biodegradable; log10 BCF: 0.18; log10 biotransformation half-life (days): -0.88
Cc1nccc2ccccc12 | 248 °C | 10 °C | –
Nc1c(Br)cccc1Br | 263 °C | 87.5 °C | –
O=C(F)C(F)(F)F | -59 °C | – | log10 Henry constant (atm·m³/mol): -3.48
CC1OC(=O)C(C)OC1=O (centres undefined) | – | 118 °C | –
Cc1ccc(S(N)(=O)=O)cc1 | – | 138 °C | ready biodegradability: not readily biodegradable
CCC1(c2ccccc2)C(=O)NCNC1=O | – | 282 °C | –

Compound | boiling point | melting point | also measured
CC(CC=O)CC(C)(C)C (centres undefined) | 173 °C | – | log10 vapour pressure (mmHg): -1.1; ready biodegradability: not readily biodegradable
CC(O)C(C)O[N+](=O)[O-] (centres undefined) | – | – | log10 Henry constant (atm·m³/mol): -7
O=C(OCCOC(=O)C(Cl)(Cl)Cl)C(Cl)(Cl)Cl | – | 40 °C | –
CN(C)Cc1ccccc1 | 181 °C | – | ready biodegradability: not readily biodegradable; log10 BCF: 1.15
Cc1c(C)c(O)c(C)c(C)c1O | – | 233 °C | –
CC(C)(c1cc(Cl)c(O)c(Cl)c1)c1cc(Cl)c(O)c(Cl)c1 | – | 135 °C | –
C[C@@H]1C[C@H]2CC[C@H](O2)[C@H](C)C(=O)O[C@@H](C)C[C@@H]2CC[C@@H](O2)[C@@H](C)C(=O)O[C@H](C)C[C@H]2CC[C@H](O2)[C@H](C)C(=O)O[C@@H](C)C[C@@H]2CC[C@@H](O2)[C@@H](C)C(=O)O1 | – | 148 °C | –
CC1CCC(C)(C)C1 (centres undefined) | 105 °C | -142 °C | log10 vapour pressure (mmHg): 1.05
Nc1cccc(-c2cccc(N)c2)c1 | – | 93.5 °C | –
C[C@]12CC[C@@H](O)C[C@@H]1CC[C@@H]1[C@@H]2[C@H](O)C[C@]2(C)C(=O)CC[C@@H]12 | – | 235 °C | –
Nc1ccc(Cc2ccc(N)c(Cl)c2)cc1Cl | 379 °C | 110 °C | ready biodegradability: not readily biodegradable; log10 BCF: 2.24; log10 biotransformation half-life (days): -0.15
Cc1cc(Cl)c(C)cc1Cl | 222 °C | 71 °C | –
CCC(C)c1ccccc1 (centres undefined) | 174 °C | -82.7 °C | log10 vapour pressure (mmHg): 0.243
FC(F)(F)C(F)(F)C(F)(F)C(F)(F)C(F)(F)C(F)(F)I | 118 °C | -46 °C | –
Clc1cc(-c2cc(Cl)c(Cl)c(Cl)c2Cl)c(Cl)c(Cl)c1Cl | – | – | log10 Henry constant (atm·m³/mol): -5; log10 Koc (L/kg): 6.41; log10 biotransformation half-life (days): 3
O=C(O)/C(=C\c1ccccc1)c1ccccc1 | – | 172 °C | –
Cc1cc([N+](=O)[O-])ccc1N | – | 134 °C | –
CCS(=O)(=O)CC | 248 °C | 73.5 °C | –
O=C(C(F)(F)F)C(F)(F)Cl | 8 °C | -133 °C | log10 vapour pressure (mmHg): 3.15
O=C(C=CC(=O)Oc1ccccc1)Oc1ccccc1 | – | 73 °C | –
COc1cc2c(cc1O)C(Cc1ccc(OC)c(OC)c1)N(C)CC2 (centres undefined) | – | 127 °C | –
CN(N)c1ccccc1 | 228 °C | – | –
Clc1ccc2c(c1)Oc1cc(Cl)c(Cl)cc1O2 | – | 162 °C | log10 Koa: 9.14; log10 vapour pressure (mmHg): -7.05
O=C(OCc1ccccc1)c1ccccc1 | 324 °C | 21 °C | log10 vapour pressure (mmHg): -3.65; ready biodegradability: readily biodegradable
C[C@@H]1CC[C@@]2(OC1)O[C@H]1C[C@H]3[C@@H]4CC[C@H]5C[C@@H](O)CC[C@]5(C)[C@H]4CC(=O)[C@]3(C)[C@H]1[C@@H]2C | – | 266 °C | –
O=[N+]([O-])c1cccc(I)c1 | 280 °C | 38.5 °C | –
NS(=O)(=O)c1ccc(SCCCCO)c(F)c1 | – | 104 °C | –

— the OPERA property sets (Mansouri et al. 2018)
